We go through twelve compounds from patent US20260216347A1, “Substituted Imidazo-Based Compounds as Ligand Directed Degraders of IRAK3” (Celgene Corporation, priority 2022, published 2026).

Assay [1] has as its target T1, IRAK3 (Homo sapiens, UniProt Q9Y616).
T1 construct: IRAK Endogenous HTRF Degradation Assay; endogenous in cells
T1 sequence (Q9Y616 1-596): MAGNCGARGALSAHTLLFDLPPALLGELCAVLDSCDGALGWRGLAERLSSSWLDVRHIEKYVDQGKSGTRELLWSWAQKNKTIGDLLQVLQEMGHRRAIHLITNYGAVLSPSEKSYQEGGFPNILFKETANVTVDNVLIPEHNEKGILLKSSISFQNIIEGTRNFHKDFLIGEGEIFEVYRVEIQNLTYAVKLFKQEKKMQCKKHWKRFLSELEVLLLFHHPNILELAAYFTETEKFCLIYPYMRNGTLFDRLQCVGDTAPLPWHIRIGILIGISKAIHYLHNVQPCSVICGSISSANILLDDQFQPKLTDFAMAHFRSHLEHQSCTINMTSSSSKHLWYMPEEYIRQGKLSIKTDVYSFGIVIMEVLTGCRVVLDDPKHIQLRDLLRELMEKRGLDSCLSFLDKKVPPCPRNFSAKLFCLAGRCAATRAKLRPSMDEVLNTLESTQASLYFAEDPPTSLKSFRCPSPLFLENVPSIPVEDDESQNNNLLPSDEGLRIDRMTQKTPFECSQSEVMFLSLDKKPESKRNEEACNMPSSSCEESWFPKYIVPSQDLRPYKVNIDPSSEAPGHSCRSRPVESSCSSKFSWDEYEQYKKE
The assay is described as follows: IRAK3 biochemical binding assay (LanthaScreen Eu Kinase Binding, TR-FRET). An outline of the steps: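 TR-FRET tracer-displacement binding with 10 nM IRAK3, 2 nM Eu-anti-GST antibody and 10 nM tracer in 50 mM HEPES pH 7.4, MgCl2, 1 mM EGTA, 0.01% Brij-35. Compounds in 3-fold dilutions, 1 h at room temperature. 665/615 nm ratio gave % inhibition; IC50 and Hill slope from dose-response fit.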

The target of assay [2] is T1, IRAK3. The assay is described as follows: IRAK endogenous HTRF degradation assay (Total-IRAK3 HTRF kit). To be noted: overnight incubation, lowest percentage of protein remaining. The class given is cell-based. In a few lines: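 Cells (~50 k) incubated overnight with 3-fold serial dilutions of compound, then lysed; total IRAK3 read by HTRF (665/615 nm ratio ×10,000), normalized to DMSO as 100%. EC50 from four-parameter logistic fit; Dmax = 100 − Ymin (lowest % protein remaining); DC50 = concentration giving 50% degradation.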
On the technique in general: Time-resolved FRET reads energy transfer from a long-lived donor to a nearby acceptor.

Broadly, the IC50 is the concentration that gives 50% inhibition. Read a high IC50 as lower potency. Consider `Cc1cc(-c2cnc(Nc3cnn(C4CCN(CC(=O)N5CCN(c6ccc7c(c6)CN(C6CCC(=O)NC6=O)C7=O)CC5)CC4)c3)c3nccn23)c(F)cc1F` (stereo not drawn) [Compound 10, 3-(5-(4-(2-(4-(4-((5-(2,4-difluoro-5-methylphenyl)imidazo[1,2-a]pyrazin-8-yl)amino)-1H-pyrazol-1-yl)piperidin-1-yl)acetyl)piperazin-1-yl)-1-oxoisoindolin-2-yl)piperidine-2,6-dione], for which the IC50 on IRAK3 [1] amounted to 0.51 nM. Moreover, on IRAK3 [2], the “IRAK3 HTRF degradation Ymin” value is 14%.
Regarding `Cc1cc(-c2cnc(Nc3cnn(C4CCN(CC(=O)N5CCN(c6ccc7c(c6)C(=O)N(C6CCC(=O)NC6=O)C7)CC5)CC4)c3)c3nccn23)c(F)cc1F` (stereo not drawn) [Compound 18, 3-(6-(4-(2-(4-(4-((5-(2,4-difluoro-5-methylphenyl)imidazo[1,2-a]pyrazin-8-yl)amino)-1H-pyrazol-1-yl)piperidin-1-yl)acetyl)piperazin-1-yl)-1-oxoisoindolin-2-yl)piperidine-2,6-dione], the concentration for half-maximal inhibition (IC50) at IRAK3 [1] was 0.5 nM. For the same compound, the “IRAK3 HTRF degradation Ymin” value at IRAK3 [2] worked out at 20%.
In turn, `Cc1cc(-c2cnc(Nc3cnn(C4CCN(CCN5CCN(c6ccc(C7CCC(=O)NC7=O)cc6)C[C@H]5C)CC4)c3)c3nccn23)c(F)cc1F` (stereo partly drawn) [Compound 9, 3-(4-((R)-4-(2-(4-(4-((5-(2,4-difluoro-5-methylphenyl)imdazo [1,2-a]pyrazin-8-yl)amino)-1H-pyrazol-1-yl)piperidin-1-yl)ethyl)-3-methylpiperazin-1-yl)phenyl) piperidine-2,6-dione] displayed an IC50 at IRAK3 [1] of 1.1 nM. Besides, at IRAK3 [2], the “IRAK3 HTRF degradation Ymin” value turned out to be 14%.
Take `Cc1cccc(-c2cnc(Nc3cnn(C4CCN(CC(=O)N5CCN(c6ccc7c(c6)C(=O)N(C6CCC(=O)NC6=O)C7)CC5)CC4)c3)c3nccn23)c1` (stereo not drawn) [Compound 16, 3-(1-oxo-6-(4-(2-(4-(4-((5-(m-tolyl)imidazo[1,2-a]pyrazin-8-yl)amino)-1H-pyrazol-1-yl)piperidin-1-yl)acetyl)piperazin-1-yl)isoindolin-2-yl)piperidine-2,6-dione]: on IRAK3 [1], the IC50 came out at 1.5 nM. Besides, at IRAK3 [2], the “IRAK3 HTRF degradation Ymin” value is listed as 45%.
As to `Cc1cc(-c2cnc(Nc3cnn(C4CCN(CCN5CCN(c6ccc([C@]7(C)CCC(=O)NC7=O)cc6)CC5)CC4)c3)c3nccn23)c(F)cc1F` [Compound 76, (S)-3-(4-(4-(2-(4-(4-((5-(2,4-difluoro-5-methylphenyl)imdazo [1,2-a]pyrazin-8-yl)amino)-1H-pyrazol-1-yl)piperidin-1-yl)ethyl)piperazin-1-yl)phenyl)-3-methylpiperidine-2,6-dione], the half-maximal inhibitory concentration (IC50) at IRAK3 [1] came to 1.7 nM. For the same compound, on IRAK3 [2], the “IRAK3 HTRF degradation Ymin” value is 64%.
On IRAK3 [1], `Cc1cc(-c2cnc(Nc3cnn(C4CCN(CC(=O)N5CCN(c6ccc(C7CCC(=O)NC7=O)cc6)CC5)CC4)c3)c3nccn23)c(F)cc1F` (stereo not drawn) [Compound 17, 3-(4-(4-(2-(4-(4-((5-(2,4-difluoro-5-methylphenyl)imidazo[1,2-a]pyrazin-8-yl)amino)-1H-pyrazol-1-yl)piperidin-1-yl)acetyl)piperazin-1-yl)phenyl)piperidine-2,6-dione] returned an IC50 of 1.3 nM. In addition, the “IRAK3 HTRF degradation Ymin” value at IRAK3 [2] turned out to be 15%.
On to `O=C1CCC(c2ccc(N3CCN(CCN4CCC(n5cc(Nc6ncc(-c7cccc(F)c7)n7ccnc67)cn5)CC4)CC3)cc2)C(=O)N1` (stereo not drawn) [Compound 80, 3-(4-(4-(2-(4-(4-((5-(3-fluorophenyl)imidazo [1,2-a]pyrazin-8-yl)amino)-1H-pyrazol-1-yl)piperidin-1-yl)ethyl)piperazin-1-yl)phenyl) piperidine-2,6-dione], for which, on IRAK3 [1], the IC50 came to 140 nM. For the same compound, the “IRAK3 HTRF degradation Ymin” value at IRAK3 [2] worked out at 11%.
With `Cc1cc(-c2cnc(Nc3cnn([C@H]4CC[C@@H](CCN5CCN(c6ccc(C7CCC(=O)NC7=O)cc6)CC5)CC4)c3)c3nccn23)c(F)cc1F` (stereo partly drawn) [Compound 14, 3-(4-(4-(2-((cis)-4-(4-((5-(2,4-difluoro-5-methylphenyl)imidazo[1,2-a]pyrazin-8-yl)amino)-1H-pyrazol-1-yl)cyclohexyl)ethyl)piperazin-1-yl)phenyl) piperidine-2,6-dione], on IRAK3 [1], the concentration for half-maximal inhibition (IC50) turned out to be 4.3 nM. Besides, the “IRAK3 HTRF degradation Ymin” value on IRAK3 [2] is 13%.
For `Cc1cc(-c2cnc(Nc3cnn(C4CCN(CCN5[C@H](C)CN(c6ccc(C7CCC(=O)NC7=O)cc6)C[C@@H]5C)CC4)c3)c3nccn23)c(F)cc1F` (stereo partly drawn) [Compound 13, 3-(4-((3S,5R)-4-(2-(4-(4-((5-(2,4-difluoro-5-methylphenyl)imdazo [1,2-a]pyrazin-8-yl)amino)-1H-pyrazol-1-yl)piperidin-1-yl)ethyl)-3,5-dimethylpiperazin-1-yl)phenyl) piperidine-2,6-dione], at IRAK3 [1], the half-maximal inhibitory concentration (IC50) was 1.3 nM. Moreover, at IRAK3 [2], the “IRAK3 HTRF degradation Ymin” value is 11%.
Take `Cc1cc(-c2cnc(Nc3cnn(C4CCN(CCN5CCN(c6ccc(C7CCC(=O)NC7=O)cc6)CC5)CC4)c3)c3nccn23)ccc1F` (stereo not drawn) [Compound 33, 3-(4-(4-(2-(4-(4-((5-(4-fluoro-3-methylphenyl)imdazo [1,2-a]pyrazin-8-yl)amino)-1H-pyrazol-1-yl)piperidin-1-yl)ethyl)piperazin-1-yl)phenyl) piperidine-2,6-dione]: at IRAK3 [1], the 50% inhibitory concentration (IC50) worked out at 12 nM. In addition, the “IRAK3 HTRF degradation Ymin” value on IRAK3 [2] stood at 13%.
In the case of `Cc1cc(-c2ccc(Nc3cnn(C4CCN(CCN5CCN(c6ccc(C7CCC(=O)NC7=O)cc6)CC5)CC4)c3)c3nccn23)c(F)cc1F` (stereo not drawn) [Compound 12, 3-(4-(4-(2-(4-(4-((5-(2,4-difluoro-5-methylphenyl)imdazo [1,2-a]pyridin-8-yl)amino)-1H-pyrazol-1-yl)piperidin-1-yl)ethyl)piperazin-1-yl)phenyl) piperidine-2,6-dione], the half-inhibitory concentration (IC50) on IRAK3 [1] worked out at 2 nM. In addition, the “IRAK3 HTRF degradation Ymin” value at IRAK3 [2] worked out at 13%.
In the same order, the values of `Cc1cc(-c2cnc(Nc3cnn([C@H]4CC[C@H](CCN5CCN(c6ccc(C7CCC(=O)NC7=O)cc6)CC5)CC4)c3)c3nccn23)c(F)cc1F` (stereo partly drawn) [Compound 11, 3-(4-(4-(2-((trans)-4-(4-((5-(2,4-difluoro-5-methylphenyl)imidazo[1,2-a]pyrazin-8-yl)amino)-1H-pyrazol-1-yl)cyclohexyl)ethyl)piperazin-1-yl)phenyl)piperidine-2,6-dione] are 8.9 nM and 12%.
